In ChEMBL document CHEMBL1201862, “PubChem BioAssay data set” (2004):
One block for each compound: values may come before it. Activity calls are given as the source filed them.

Key:
Genome polyprotein = Genome polyprotein (Hepatitis C virus, UniProt Q2Q167); assay: disruption of hepatitis C core self-association – biochemical, TR-FRET, dose response (AID 2159); design: species or system Hepacivirus hominis;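 also: blocks dimerization of HCV core protein measured by TR-FRET between tagged core106 pairs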
Chain of Genome polyprotein (Q2Q167 whole entry): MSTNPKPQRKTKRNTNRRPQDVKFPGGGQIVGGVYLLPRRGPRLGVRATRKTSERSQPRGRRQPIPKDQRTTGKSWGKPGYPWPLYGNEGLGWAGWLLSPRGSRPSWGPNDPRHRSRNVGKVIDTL

[1] = target: Voltage-gated inwardly rectifying potassium channel KCNH2 (Homo sapiens, UniProt Q12809); assay: concentration-dependent hERG rescue from blockers – cell-based, thallium flux, dose response (AID 2121); format: ADME
Chain of Voltage-gated inwardly rectifying potassium channel KCNH2 (Q12809 whole entry): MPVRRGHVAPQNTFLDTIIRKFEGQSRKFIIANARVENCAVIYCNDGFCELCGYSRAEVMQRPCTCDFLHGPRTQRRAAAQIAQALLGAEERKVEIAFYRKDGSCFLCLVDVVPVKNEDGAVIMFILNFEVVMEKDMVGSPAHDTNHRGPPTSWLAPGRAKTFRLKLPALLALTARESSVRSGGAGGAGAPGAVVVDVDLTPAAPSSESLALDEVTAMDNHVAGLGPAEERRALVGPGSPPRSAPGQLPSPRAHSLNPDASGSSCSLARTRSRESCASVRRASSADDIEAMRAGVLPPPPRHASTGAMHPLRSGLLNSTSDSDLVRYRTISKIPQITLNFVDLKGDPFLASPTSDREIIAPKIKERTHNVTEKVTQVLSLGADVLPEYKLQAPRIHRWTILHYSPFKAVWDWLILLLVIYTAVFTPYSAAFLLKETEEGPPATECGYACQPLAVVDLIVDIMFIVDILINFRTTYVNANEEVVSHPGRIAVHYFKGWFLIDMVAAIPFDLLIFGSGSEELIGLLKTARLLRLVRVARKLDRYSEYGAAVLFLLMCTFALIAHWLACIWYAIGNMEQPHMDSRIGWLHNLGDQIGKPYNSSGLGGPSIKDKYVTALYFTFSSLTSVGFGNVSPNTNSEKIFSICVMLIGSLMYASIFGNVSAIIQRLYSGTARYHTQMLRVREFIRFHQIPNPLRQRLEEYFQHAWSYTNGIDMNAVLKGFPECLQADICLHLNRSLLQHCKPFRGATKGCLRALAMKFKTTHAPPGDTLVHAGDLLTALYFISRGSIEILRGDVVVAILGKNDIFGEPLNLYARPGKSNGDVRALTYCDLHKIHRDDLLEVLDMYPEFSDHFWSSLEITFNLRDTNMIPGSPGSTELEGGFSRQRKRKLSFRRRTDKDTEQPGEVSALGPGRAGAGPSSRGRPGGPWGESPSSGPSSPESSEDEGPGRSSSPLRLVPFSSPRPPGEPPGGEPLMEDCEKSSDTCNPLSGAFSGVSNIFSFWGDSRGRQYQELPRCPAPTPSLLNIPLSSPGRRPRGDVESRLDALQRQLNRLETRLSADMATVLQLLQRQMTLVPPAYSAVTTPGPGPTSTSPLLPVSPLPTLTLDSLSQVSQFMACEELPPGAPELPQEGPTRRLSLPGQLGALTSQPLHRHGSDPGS

[2] = HIV-1 Vif–A3G interaction blockers – biochemical, TR-FRET, GST-Vif 1-94, biotin-A3G peptide, dose response retest, primary screen (AID 1117319); format: functional;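 also: TR-FRET signal of purified GST-Vif binding a biotinylated A3G peptide; inhibitors lower the FRET signal by blocking Vif and A3G binding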
[3] = viability loss in THP-1 monocytes – THP-1 cells, cytotoxicity control for Vif-APOBEC3G degradation inhibitor project, dose response (AID 1117359); format: functional; conditions: THP-1
[4] = cytotoxicity toward HCT116 cells – cell-based, CellTiter-Glo luminescence, IC50, dose response (AID 1117332); format: functional; conditions: HCT-116
[5] = cytotoxicity toward HT-29 cells – cell-based, CellTiter-Glo luminescence, IC50, dose response (AID 1117330); format: functional
[6] = rise of 2N DNA cells, HeLa – IC50, dose response (AID 1117349); format: functional, cell-based
[7] = SNU-C1 cell viability reduction, dose response, CellTiter-Glo luminescence (AID 1117323); format: functional, cell-based
[8] = CellTiter-Glo luminescence survival assay, SW480 colon tumor line, concentration-response curve, half-maximal inhibitory concentration (AID 1117338); format: functional
[9] = HGIII-sPLA2 enzyme inhibition potency – biochemical, QFRET, IC50, dose response (AID 743457);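 also: green fluorescence rise as the enzyme cleaves BODIPY PC-A2 in liposomes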
[10] = rise of 4N DNA cells, HeLa – IC50, dose response (AID 1117351); format: functional, cell-based
[11] = Reduced DLD-1 viability, concentration-response, CellTiter-Glo luminescence (AID 1117352); format: functional
[12] = cytotoxicity toward Colo320 cells – cell-based, CellTiter-Glo luminescence, IC50, dose response (AID 1117334); format: functional; conditions: COLO 320
[13] = RKO cell viability reduction, dose response, CellTiter-Glo luminescence (AID 1117322); format: functional

IC50 (Genome polyprotein): > 49.8 µM (not active)
Compound: CCCCn1c(SCC(=O)Nc2cc(C)on2)nc2ccccc2c1=O

Compound: COC(=O)c1c(NS(=O)(=O)c2ccc3ccccc3c2)sc2c1CCCC2
EC50 [1]: 7.18 µM (active)

IC50 [2]: > 100 µM (active)
Compound: N#Cc1ccccc1NC(=O)CNc1ccc(Cl)c(C(F)(F)F)c1

Compound: CCOC(=O)C1CCN(C(=O)c2ccc3snnc3c2)CC1
CC50 [3]: > 40 µM (active)

Compound: Cc1ccc2c(c1)c1c3n2CCNC3CCC1 (centres undefined)
IC50 [4]: > 20 µM (inactive) | IC50 [5]: > 20 µM (inactive) | IC50 [6]: > 10 µM (inactive) | IC50 [7]: 2.48 µM (active) | IC50 [8]: > 20 µM (inactive) | IC50 [9]: > 122 µM (inactive) | IC50 [10]: > 10 µM (inactive) | IC50 [11]: > 20 µM (inactive) | IC50 [12]: > 20 µM (inactive) | IC50 [13]: > 20 µM (inactive)
